{
  "source": "patent US11844811B2",
  "about": "“Methods and compositions for alleviating respiratory dysfunction” (MYFITSTRIP LLC, priority 2018, dated 2023)",
  "key": {"[1]": {"details": "hypertensives; 5-7 mM (310-434 mg/L/day) nitrate; cited from earlier work"}},
  "note": "Where two headings read alike, the source gives them in different places.",
  "data": [
    {"smiles": "O=[N+]([O-])[O-].[K+]", "note": "[KNO3, potassium nitrate]", "values": [
      {"measurement": "salivary nitrite", "setting": "ingestion", "value": "elevated"},
      {"measurement": "Salivary NO2", "setting": "subject 1, 500 mg KNO3 (5 mg/Kg) at 8:00, time 1:00PM", "value": 120, "unit": "µM"},
      {"measurement": "Salivary NO2", "setting": "subject 1, 500 mg KNO3 (5 mg/Kg) at 8:00, time 2:00", "value": 110, "unit": "µM"},
      {"measurement": "Salivary NO2", "setting": "subject 1, 500 mg KNO3 (5 mg/Kg) at 8:00, time 2:45", "value": "<20", "unit": "µM"},
      {"measurement": "Salivary NO2", "setting": "subject 1, 500 mg KNO3 (5 mg/Kg) at 8:00, time 9:00", "value": 400, "unit": "µM"},
      {"measurement": "Salivary NO2", "setting": "subject 1, 500 mg KNO3 (5 mg/Kg) at 8:00, time 11:00", "value": 220, "unit": "µM"},
      {"measurement": "Salivary NO2", "setting": "subject 1, 500 mg KNO3 (5 mg/Kg) at 8:00, time 11:40", "value": 110, "unit": "µM"},
      {"measurement": "Salivary NO2", "setting": "subject 2, 1,000 mg KNO3 (12 mgNO3/Kg) at 10:00, time 3:00", "value": 220, "unit": "µM"},
      {"measurement": "Salivary NO2", "setting": "subject 2, 1,000 mg KNO3 (12 mgNO3/Kg) at 10:00, time 4:00", "value": 110, "unit": "µM"},
      {"measurement": "Salivary NO2", "setting": "subject 2, 1,000 mg KNO3 (12 mgNO3/Kg) at 10:00, time 5:45", "value": 20, "unit": "µM"},
      {"measurement": "Salivary NO2", "setting": "subject 2, 1,000 mg KNO3 (12 mgNO3/Kg) at 10:00, time 10:30", "value": 200, "unit": "µM"}
    ]},
    {"smiles": "O=[N+]([O-])O", "note": "[nitrate]", "values": [
      {"measurement": "reduction of systolic blood pressure", "setting": "[1]", "value": "4-11 mmHg"}
    ]},
    {"smiles": "O=C1O[C@H]([C@@H](O)CO)C(O)=C1O", "note": "[ascorbate]", "values": [
      {"measurement": "nitric oxide bioavailability (salivary nitrite as surrogate marker)", "setting": "human, in vivo", "value": "boosted and extended"}
    ]}
  ]
}
